Measurements taken from PMC6349167, “Inhibiting the urokinase‐type plasminogen activator receptor system recovers STZ‐induced diabetic nephropathy” (Journal of Cellular and Molecular Medicine, 2018).
Read-outs that look alike come from different tables or passages of the source. Non-standard residues stand in square brackets, D forms with d. Residues, ends and D or L forms follow the SMILES beside them. αMeF = C[C@](N)(Cc1ccccc1)C(=O)O; Aib = CC(C)(N)C(=O)O

What was measured:
[1] = in vivo; settings: male, Sprague-Dawley, rat, sc, 20 mg/kg
Protocol: (§1) Four weeks after diabetes induction, three control or three STZ rats were used for the pharmacokinetics (PK) and the tissue distribution study. To this aim, rats received a single dose of UPARANT succinate dissolved in PBS (vehicle) at 20 mg/kg via subcutaneous injection according to a previous study.22 To investigate a possible therapeutic role of UPARANT, the drug was administered at 1 or 8 mg/kg daily for 5 days in 15 rats for each concentration used. […] Rats were killed with 65 mg/kg pentobarbital. Blood was collected in EDTA tubes to then isolate plasma by centrifugation and kidneys were removed.
(§2) PK and UPARANT tissue distribution were as previously described.21 Briefly, for plasma PK, a volume of 0.2 mL blood was extracted at fixed time intervals (0.25, 0.5, 1, 2, 4, 6, 8, 12, 16 and 24 hours after dose) from the femoral vein. Blood was centrifuged (12 000 g for 20 minutes) and plasma was treated with 1% formic acid in methanol. Samples were stored at −80°C. The animals used for the PK study were killed at 24 hours. Kidneys and livers were dissected and processed with 1% formic acid in methanol. The concentration of UPARANT was evaluated via LC‐MS/MS.

[2] = in vivo; settings: male, Sprague-Dawley, rat, sc, 20 mg/kg; remark: listed apart in the source
Protocol: (§3) Four weeks after diabetes induction, three control or three STZ rats were used for the pharmacokinetics (PK) and the tissue distribution study. To this aim, rats received a single dose of UPARANT succinate dissolved in PBS (vehicle) at 20 mg/kg via subcutaneous injection according to a previous study.22 To investigate a possible therapeutic role of UPARANT, the drug was administered at 1 or 8 mg/kg daily for 5 days in 15 rats for each concentration used.
(§4) PK and UPARANT tissue distribution were as previously described.21 Briefly, for plasma PK, a volume of 0.2 mL blood was extracted at fixed time intervals (0.25, 0.5, 1, 2, 4, 6, 8, 12, 16 and 24 hours after dose) from the femoral vein. Blood was centrifuged (12 000 g for 20 minutes) and plasma was treated with 1% formic acid in methanol. Samples were stored at −80°C. The animals used for the PK study were killed at 24 hours. […] The concentration of UPARANT was evaluated via LC‐MS/MS.
(§5) A two phase model equation Ct = C0(e^-kelim^ t-e^-kabs^ t) with first order kinetics (absorption and elimination) was used to evaluate the kinetic parameters. Both C0 corresponding to the plasma concentration extrapolated at t=0 from the elimination phase and kelim and kabs, elimination and absorption kinetic parameters, were determined by best fit to the equation of the averaged time point concentrations. The terminal half-life t1/2 corresponding to 0.693/kelim and time tmax at the maximum plasma concentration Cmax were determined from the first derivative equal zero of the kinetic equation. The AUCinf, area under the concentration curve versus time from 0 to infinity was calculated by the integral of the kinetic equation.

[3] = male, Sprague-Dawley, rat, in vivo, sc, 20 mg/kg, 24 h
Protocol: as §1, §2

[4] = rat, in vivo, sc, 20 mg/kg
Protocol: as §3, §4, §5

CC(=O)N[C@@H](CCCNC(=N)N)C(=O)NC(C)(C)C(=O)N[C@@H](CCCNC(=N)N)C(=O)N[C@@](C)(Cc1ccccc1)C(N)=O [UPARANT, Ac‐L‐Arg‐Aib‐L‐Arg‐L‐Cα(Me)PheNH2] (Ac-R[Aib]R[αMeF]-NH2)
tissue level at time at 24 h ([1]; concentration of UPARANT in the kidney): 45900 ± 3600 ng/g | tissue level at time at 24 h ([1]; concentration of UPARANT in the liver): 21100 ± 2400 ng/g | half-life [2]: 132 min | AUC(0-inf) ([2]; AUCinf): 15900 ng·h/mL | Cmax ([2]; Cmax): 2600 ng/mL | tmax ([2]; tmax): 2.3 h | concentration of UPARANT in the kidney [3]: 28.2 ± 4.3 µg/g | concentration of UPARANT in the liver [3]: 20.4 ± 7.5 µg/g | AUCinf ([4]; male, Sprague-Dawley): 16.1 mg·h/L | Cmax ([4]; male, Sprague-Dawley): 2.3 mg/L | tmax ([4]; male, Sprague-Dawley): 2.2 h | kabs [4]: 0.6 ± 0.2 h⁻¹ | t1/2 [4]: 2.2 h
